# Source: patent publication US11066681B2, “Production of itaconic acid” (LESAFFRE ET COMPAGNIE, priority 2016, dated 2021)
# Entries after “also recorded” stand apart in the source; their conditions may differ.
# What was measured:
# [1] = test system: A. niger AB1.13 CAD 4.1 (CBS 141653) strain; assay: Itaconic acid toxicity: shakeflask growth in M12+Cu with added IA, biomass dry weight; assay type: cell-based, Aspergillus niger
# Procedure: FIG. 4: Growth of AB1.13 CAD 4.1 (CBS 141653) strain in M12+Cu supplemented with several concentrations of itaconic acid. Medium devoid of C-source is used as negative control. An extracellular concentration of 10 g/l IA in the production medium results in an 75% decrease in biomass development.
# Shakeflasks (500 mL) were prepared with 100 mL M12+Cu supplemented with the following IA concentrations: 0, 10, 20, 40, 75 g/l and pH was adjusted to 2.3 by addition of KOH/H2SO4. The flasks were inoculated with 1 mL of overnight grown pre-culture. After 7 days the mycelium was harvested and the biomass was determined by measuring the dry weight. The effect of IA on the growth of A. niger was tested using the AB1.13 CAD 4.1 (CBS 141653) strain. As shown in FIG. 4 the growth of A. niger is already hampered at concentrations of 10 g/l IA in the extracellular medium.
# [2] = test system: trans-aconitate 2-methyltransferase (An16g06510); assay: Gene expression analysis (RNA-Seq) in A. niger IA producing strains; assay type: cell-based, Aspergillus niger; details: IA producing A. niger strains in controlled fermentation
# Procedure: Similarly, genome wide gene expression analysis of Aspergillus niger strains expressing a functional itaconic acid pathway grown in fermenters was carried out to identify genes co-regulated by the expression of the itaconic acid gene cluster. The following strains were investigated: AB1.13 WT, AB1.13 CAD 4.1 (CBS141653), AB1.13 #49B (CBS141657), CitB #99 (CBS141659), and CitB #113.
# Controlled batch-cultivations were performed on 5 L scale benchtop New Brunswick Scientific fermenters (BioFlo 3000) at 33° C. Starting pH was 3.5 after inoculation and medium was allowed to naturally acidify till pH 2.3 and then kept at pH 2.3 by addition of 4M KOH. […]
# BaseClear in Leiden, NL performed digital gene expression profiling experiments based on RNA-Seq with an Illumina HiSeq 2000 System. Approximately 8-32 M unfiltered paired-end (PE) reads (99 bp/read on ˜320 bp cDNA inserts) were obtained. […] The reads were then further filtered, such that all quality phred scores after filtering are at least 22, with a read-length of at least 40 bases. […] After filtering the #PE-reads/samples were between 7.6M and 19.8M for all the samples respectively.
# Reads were aligned to the 20 contigs in a FastA file of the Aspergillus niger reference genome (from www.ebi.ac.uk). […] The reads were aligned to the reference genome using software based on a Burrows-Wheeler Transform (BWT) algorithm. […]
# [3] = test system: Itaconyl CoA transferase ATEG_06299; details: 40 g/l IA addition to culture medium; cited from earlier work
# [4] = test system: Itaconyl CoA hydratase ATEG_03709; details: 40 g/l IA addition to culture medium; cited from earlier work
# [5] = test system: Citramalyl-CoA lyase ATEG_03186; details: 40 g/l IA addition to culture medium; cited from earlier work
# [6] = test system: Trans-aconitate 3-methyltransferase (tmt-1) ATEG_06208; details: 40 g/l IA addition to culture medium; cited from earlier work
# [7] = test system: Trans-aconitate 2-methyltransferase ATEG_04223; details: 40 g/l IA addition to culture medium; cited from earlier work
structure (smiles),measurement,setting,value
"C=C(CC(=O)O)C(=O)O [IA, itaconic acid]",growth of A. niger,"[1]; 10 g/l IA in the extracellular medium, M12+Cu, 7 days",hampered
same,growth at higher IA concentrations,"[1]; 20 g/l IA and higher (20, 40 and 75 g/l), M12+Cu, 7 days, 33° C.",detrimental effects of IA on growth become more evident; also recorded: further deteriorated growth
same,decrease in biomass development,"[1]; extracellular 10 g/l IA in production medium M12+Cu, pH 2.3, 7 days, 33° C.",75%
same,"gene expression, effect of itaconic acid",[2],induced
same,Induced,[3],induced
same,induced expression level (RKPM),[3],130 RKPM
same,x-fold,[3],8.2 x-fold
same,Induced,[4],induced
same,induced expression level (RKPM),[4],320 RKPM
same,x-fold,[4],2.3 x-fold
same,Induced,[5],induced
same,induced expression level (RKPM),[5],150 RKPM
same,x-fold,[5],5.4 x-fold
same,Induced,[6],not induced
same,induced expression level (RKPM),[6],<(4) RKPM
same,Induced,[7],not induced
same,induced expression level (RKPM),[7],<(25) RKPM
